Measurements as given in patent US8436019B2, “Sulfonyl-piperidin-4-yl methylamine amide analogs as GlyT1 inhibitors, methods for making same, and use of same in treating psychiatric disorders” (Vanderbilt University, priority 2009, dated 2013).

Molecular target: T1, GlyT1 (Homo sapiens, UniProt P48067)
T1 construct: Human placental choriocarcinoma cells endogenously expressing GlyT1; endogenous in cells; host or cells: JAR cells (human placental choriocarcinoma)
T1 sequence (P48067 1-706): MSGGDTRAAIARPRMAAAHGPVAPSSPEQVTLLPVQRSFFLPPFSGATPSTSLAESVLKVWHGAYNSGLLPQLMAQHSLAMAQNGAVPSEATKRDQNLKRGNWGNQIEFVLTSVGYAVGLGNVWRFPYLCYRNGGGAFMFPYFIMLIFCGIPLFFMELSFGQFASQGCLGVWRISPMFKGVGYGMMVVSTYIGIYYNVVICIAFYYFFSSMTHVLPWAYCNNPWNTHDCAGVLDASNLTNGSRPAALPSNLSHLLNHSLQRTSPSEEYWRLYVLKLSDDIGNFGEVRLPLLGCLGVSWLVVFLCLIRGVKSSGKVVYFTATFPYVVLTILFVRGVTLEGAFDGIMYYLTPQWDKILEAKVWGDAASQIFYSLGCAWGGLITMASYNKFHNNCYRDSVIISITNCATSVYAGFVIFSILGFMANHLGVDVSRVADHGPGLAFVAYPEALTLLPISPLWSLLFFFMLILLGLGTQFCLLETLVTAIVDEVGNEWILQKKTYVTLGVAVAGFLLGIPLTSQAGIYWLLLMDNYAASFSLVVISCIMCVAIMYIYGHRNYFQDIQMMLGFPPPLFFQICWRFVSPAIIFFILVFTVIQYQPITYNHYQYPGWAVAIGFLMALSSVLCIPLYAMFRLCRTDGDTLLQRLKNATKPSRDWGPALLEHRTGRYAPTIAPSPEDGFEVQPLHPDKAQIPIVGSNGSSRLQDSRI
Assay: [14C]-glycine uptake inhibition in JAR cells (human placental choriocarcinoma cells endogenously expressing GlyT1)
Type: cell-based
Conditions: inhibition of specific [14C]-glycine uptake; values given in μM; read-out: Potency
Procedure: Human placental choriocarcinoma cells endogenously expressing GlyT1 can be cultured using standard conditions. Cells can then be grown at 37° C. in a humidified atmosphere 40-48 hours before the assay. Culture medium can be removed from the culture plate, and cells can be incubated with an amount of TB1A buffer with or without the compounds of the present invention for a sufficient period of time. Then an amount of [^14C]-glycine diluted with TB1A can be added to each well. After incubation the microplates can be sealed and counted. Non-specific uptake of [^14C]-glycine can be determined in the presence of unlabeled glycine. To determine potencies, a range of concentrations of the compounds of the present invention can be added to the cells, followed by the fixed concentration of [^14C]-glycine. The concentration of the present compound that inhibited half of the specific uptake of [^14C]glycine (IC50 value) can be determined from the assay data by non-linear curve fitting.

Row | IC50 [µM] | SMILES
1 | 1.6 | Cn1cnc(S(=O)(=O)N2CCC(C(NC(=O)c3ccc(Cl)cc3Cl)c3ccccn3)CC2)c1 (single isomer, unassigned) [Compound 8a-2]
2 | 1.5 | CCCS(=O)(=O)N1CCC(C(NC(=O)c2ccc(Cl)cc2Cl)c2ccccc2)CC1 (racemic) [Compound 3a]
3 | > 10 | CCCS(=O)(=O)N1CCC(C(NC(=O)c2ccc(Cl)cc2Cl)c2ccccc2)CC1 (single isomer, unassigned) [Compound 3a-1]
4 | 2.4 | Cn1cc(S(=O)(=O)N2CCC(C(NC(=O)c3ccc(Cl)cc3Cl)c3ccccc3)CC2)cn1 (centres unmarked) [Compound 3c]
5 | > 10 | Cn1cnc(S(=O)(=O)N2CCC(C(NC(=O)c3ccccc3Cl)c3ccccc3)CC2)c1 (centres unmarked) [Compound 5a]
6 | > 10 | Cn1cnc(S(=O)(=O)N2CCC(C(NC(=O)c3c(F)cccc3F)c3ccccn3)CC2)c1 (centres unmarked) [Compound 8c]
7 | > 10 | Cn1cnc(S(=O)(=O)N2CCC(C(NC(=O)c3ccc(Cl)cc3Cl)c3ccccc3)CC2)c1 (single isomer, unassigned) [Compound 3b-1]
8 | 1.6 | Cn1cnc(S(=O)(=O)N2CCC(C(NC(=O)c3ccccc3C(F)(F)F)c3ccccn3)CC2)c1 (centres unmarked) [Compound 8b]

Same assay, conditions: inhibition of specific [14C]-glycine uptake; values in nM; read-out: Potency

Row | IC50 [µM] | SMILES
9 | 0.53 | CC(NC(=O)c1ccc(Cl)cc1Cl)C1CCN(S(=O)(=O)c2cn(C)cn2)CC1 (centres unmarked) [Compound 9b]
10 | 0.046 | Cn1cnc(S(=O)(=O)N2CCC(C(NC(=O)c3ccc(Cl)cc3Cl)c3ccccn3)CC2)c1 (racemic) [Compound 8a]
11 | 0.853 | Cn1cnc(S(=O)(=O)N2CCC(C(NC(=O)c3ccc(F)cc3F)c3ccccn3)CC2)c1 (centres unmarked) [Compound 8e]
12 | 0.174 | Cn1cnc(S(=O)(=O)N2CCC(CNC(=O)c3ccc(Cl)cc3Cl)CC2)c1 [Compound 9a]
13 | 0.201 | Cn1cnc(S(=O)(=O)N2CCC(C(NC(=O)c3ccc(Cl)cc3Cl)c3ccccc3)CC2)c1 (racemic) [Compound 3b]
14 | 0.178 | Cn1cnc(S(=O)(=O)N2CCC(C(NC(=O)c3ccc(Cl)cc3Cl)c3ccccc3)CC2)c1 (single isomer, unassigned) [Compound 3b-2]
15 | 0.718 | Cn1cnc(S(=O)(=O)N2CCC(C(NC(=O)c3ccc(Cl)cc3)c3ccccn3)CC2)c1 (centres unmarked) [Compound 8d]
16 | 0.609 | CCCS(=O)(=O)N1CCC(C(NC(=O)c2ccc(Cl)cc2Cl)c2ccccc2)CC1 (single isomer, unassigned) [Compound 3a-2]
17 | 0.09 | Cn1cnc(S(=O)(=O)N2CCC(C(NC(=O)c3ccc(Cl)cc3Cl)c3ccccn3)CC2)c1 (single isomer, unassigned) [Compound 8a-1]
